# Experimental data published in US4683198A, “Novel maltose dehydrogenase, process for its production, and analytical method using the same” (Toyo Jozo Kabushiki Kaisha, priority 1983, dated 1987).
# Biological target: T1, amylase (Homo sapiens, UniProt P0DUB6)
# T1 construct: 500-fold-diluted saliva (a specimen containing amylase, 20 μl); from tissue; host or cells: saliva, 500-fold diluted
# T1 sequence (P0DUB6 16-511): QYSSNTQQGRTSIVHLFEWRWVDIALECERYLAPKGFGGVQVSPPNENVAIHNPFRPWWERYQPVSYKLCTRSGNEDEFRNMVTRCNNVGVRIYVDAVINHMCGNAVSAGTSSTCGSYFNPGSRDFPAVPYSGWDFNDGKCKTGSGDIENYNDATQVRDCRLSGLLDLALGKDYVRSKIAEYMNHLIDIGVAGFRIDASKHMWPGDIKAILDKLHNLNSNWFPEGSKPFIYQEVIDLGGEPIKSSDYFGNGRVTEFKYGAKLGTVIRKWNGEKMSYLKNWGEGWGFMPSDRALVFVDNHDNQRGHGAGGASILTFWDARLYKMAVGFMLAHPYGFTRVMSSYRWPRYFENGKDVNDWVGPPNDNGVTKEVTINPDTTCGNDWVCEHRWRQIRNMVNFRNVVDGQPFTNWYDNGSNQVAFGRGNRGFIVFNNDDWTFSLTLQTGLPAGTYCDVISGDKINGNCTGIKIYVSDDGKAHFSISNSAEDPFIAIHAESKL
# Assay: Salivary amylase assay with modified oligosaccharide substrates (Example 3)
# Type: biochemical
# Conditions: 5 mM substrate; 500-fold-diluted saliva; 37° C.
# Experimental: Aliquots of the reaction mixture (each 1 ml), in which 5 mM p-nitrophenylpentaoside or p-nitrophenylheptaoside was added to the same reaction mixture described in Example 2, in small test tubes, were pre-incubated at 37° C. Aliquots of 500-fold-diluted saliva (a specimen containing amylase, 20 μl) were added thereto and the mixtures were incubated for 5, 10 and 15 mins., respectively.
structure (smiles),measurement,value
O=[N+]([O-])c1ccc(OC2O[C@H](CO)[C@@H](O[C@H]3O[C@H](CO)[C@@H](O[C@H]4O[C@H](CO)[C@@H](O[C@H]5O[C@H](CO)[C@@H](O[C@H]6O[C@H](CO)[C@@H](O[C@H]7O[C@H](CO)[C@@H](O[C@H]8O[C@H](CO)[C@@H](O)[C@H](O)[C@H]8O)[C@H](O)[C@H]7O)[C@H](O)[C@H]6O)[C@H](O)[C@H]5O)[C@H](O)[C@H]4O)[C@H](O)[C@H]3O)[C@H](O)[C@H]2O)cc1 (stereo partly shown) [p-nitrophenylheptaoside],activity as compared with p-nitrophenylpentaoside,Three times stronger activity
